Measured values taken from patent publication US20240197816A1, “COMPOSITION AND METHOD FOR PROLONG SURVIVAL OF TRANSPLANT AND RECIPIENT” (NovMetaPharma Co., Ltd., priority 2022, published 2024).

Columns and labels:
[1] = test system: F344 donor kidney transplanted into LEWIS rats; assay: Survival of recipients in rat allogeneic kidney transplantation, minor MHC incompatible model; assay type: in vivo; details: CHP 40 mg/kg i.v. 1 hour before transplantation, then 40 mg/kg i.p. three times a week, n=4, untreated control 9 days (n=7)
Description: Donor surgery: After removing abdominal hair from donor rat under general anesthesia, the surgical area was disinfected and covered with surgical cloth. After a midline incision in the abdominal wall, one kidney was exposed, and 8 iu/kg of heparin was administered intravenously, followed by nephrectomy.
Table Surgery: Removed unnecessary tissue to anastomosis the artery, vein, and ureter of the extracted kidney to the blood vessel and ureter of the recipient, and covered and stored with gauze soaked in saline at 4° C.
Recipient surgery: After removal of abdominal hair of recipient rat under general anesthesia, the surgical area was disinfected and covered with surgical cloth. After a midline incision in the abdominal wall, the right kidney was exposed, the kidney was resected, and the donor renal artery and vein were anastomized end to side to the […]. The ureter of donor's kidney was sutured after incising the bladder. After confirming that the perfusion of the kidney was good (FIG. 1), the abdominal wall was closed, and the animal was placed on a blanket at 37° C. to recover.
As a minor MHC incompatible model, a kidney transplantation model F344 rats were used as donors and LEWIS rats were used as recipients. After resection of the recipients' right kidney on Day 0 (DO), the donors' kidney was transplanted into the recipients. […]

[2] = test system: transplanted kidney (F344 to LEWIS rats); assay: Weekly ultrasound (color Doppler) of blood flow to the transplanted kidney; assay type: in vivo, rat; details: CHP treatment group, ultrasound once a week
Description: In the control group, CHP administration group (F344 to LEWIS rats), and inbred (LEWIS to LEWIS rats) kidney transplantation model, ultrasound was performed once a week to check the smooth flow of blood to the transplanted kidney.

[3] = test system: transplanted kidney (F344 to LEWIS rats); assay: Graft kidney tissue findings (histology); assay type: in vivo, rat; details: TPL+CHP group; graft tissue on the 45th day
From the text: These phenomena are believed to be an effect of CHP that can suppress the acute rejection reaction that occurs within days after transplantation. In FIG. 5, graft kidney tissue findings on the 7th day of rejection in the left […] control group (Syngenic TPL) and on the 45th day in the CHP treated group (TPL+CHP).

[4] = test system: transplanted kidney (F344 to LEWIS rats); assay: Evaluation of graft function (BUN, serum creatinine) after kidney transplantation; assay type: in vivo, rat
From the text: Individual data points represent the following groups: the syngeneic transplant recipients (Syngenic; n=3), transplant recipients without CHP administration (TPL; n=5), and the CHP-treated transplant recipients (TPL+CHP; n=5). […] This significant improvement in key renal function indicators highlights a promising advancement in post-transplant care, reducing the reliance on immunosuppressive therapies, and prolonging recipient survival and enhancing graft survival.

[5] = test system: transplanted kidney; Nrf2; assay: PAS and Nrf2 immunohistochemistry of transplanted kidney five days after transplantation; assay type: in vivo, rat
From the text: All animals were sacrificed at five days from post-kidney transplantation. The administration of CHP to the transplant recipient group decreased tubular atrophy, tubulitis, endothelialitis, leukocyte infiltration, while increasing the level of antioxidative stress marker Nrf2 (Nuclear factor erythroid-2-related factor). These findings highlight the potential of CHP to exert protective (e.g., anti-inflammatory and antioxidative) effects in the transplantation rat model.

`O=C1N[C@@H](Cc2cnc[nH]2)C(=O)N2CCC[C@@H]12` [CHP, Cyclo histidine-proline] was tested, and the “mean survival day (SMD)” value [1] was 326 days, the “blood flow to the transplanted kidney (ultrasound)” value [2] was “blood flow to the kidney was smooth” and the “borderline changes suggestive of acute cell-mediated rejection and microvascular inflammation” value [3] was “rapidly decreased”. The “focal glomerular necrosis and severe tubulointerstitial changes” value [3] was “decrease”, the “function of the grafted organ” value ([4]; CHP-treated animals, entire period of survival, weekly measurements over 46 weeks) was “fully function” and the serum creatinine ([4]; TPL+CHP group at 3 weeks after transplantation, syngenic group 0.71 mg/dL) was 0.82 mg/dL. For the same compound, the serum creatinine levels ([4]; five days post-transplantation, TPL+CHP n=5, TPL without CHP 7.23±0.39, p<0.0001) was 1.32 ± 0.13 mg/dL, the “blood urea nitrogen (BUN)” value ([4]; five days post-transplantation, TPL+CHP n=5, TPL without CHP 193.5±8.54, p<0.0001) was 41.98 ± 5.69 mg/dL and the “level of antioxidative stress marker Nrf2” value ([5]; Nrf2 immunohistochemistry) was “increasing”. For the same compound, the “tubular atrophy, tubulitis, endothelialitis, leukocyte infiltration” value ([5]; PAS staining) was “decreased”.
